Test results published in patent US10208066B2, “Imidazopyridazine compounds and their use” (HUTCHISON MEDIPHARMA LIMITED, priority 2014, dated 2019).

How the values were obtained:
[1] = Plasma levels of compound 4 after oral administration; assay type: in vivo, Wistar rats; conditions: dose range 0.01 mg/kg to 3 mg/kg
Method: (§1) Wistar rats (female, 6-8 weeks old) were used in the experiments. The dose dependency, time course study and PKPD relationship of compound 4 were conducted in normal Wistar rats. […] The control group (6 rats) was treated with the vehicle alone. At designated time points (1 hour, 8 hours, 16 hours and 24 hours after administration), blood samples were collected from rats via retro-orbital bleeding under isofluorane anesthesia into heparinized tubes. The heparin anti-coagulated blood was mixed with anti-rat-IgD, then was incubated at 37° C. under 5% CO2 overnight. Fluorescence signal for CD86 on B220 (B cells) positive cells was detected using a flow cytometer (BD FACSCalibur, BD Biosciences) and data were analyzed by CellQuest software. Plasma was collected to measure compound 4 levels.

[2] = tested on: B cells (B220+) activation (CD86); test: Anti-IgD antibody induced B cells activation in rat whole blood, ex vivo after oral administration; parameters: species or system Wistar rats
Method: Activation of B cells (B220+) in rat whole, blood with anti-IgD antibody leading to activation via Ig receptors is known to involve PI3K pathways and sensitive to modulation by PI3Kδ inhibitors, A pharmacodynamics assay was developed to assess activity of PI3Kδ inhibitors ex vivo following oral administration of inhibitors to rats.
as §1

[3] = tested on: AKT phosphorylation (p-AKT Ser473) in Ramos cells; test: Inhibition of AKT phosphorylation in Ramos cell line (anti-IgM stimulated); assay type: cell-based; conditions: Homo sapiens; Ramos cells, anti-IgM stimulation; read-out: IC50, inhibition of AKT phosphorylation
Method: 6×10^4/mL Ramos cells (ATCC, CRL-1596; cells were cultured in RPMI1640 media with 10% FBS) were seeded into a 96-well plate (Beckman Dickinson, No. 356692) at 80 uL/well, 4,800 cells/well. After incubation for 3 hr at 37° C. under 5% CO2, Ramos cells were treated with 10 uL/well various concentrations of test compound (final concentrations of the test compound: 1 uM, 0.3 uM, 0.1 uM, 0.037 uM, 0.012 uM, 0.0041 uM, 0.0014 uM and 0.0005 uM) or 0.3% DMSO for 30 min, and then were stimulated with 10 uL/well 1 ug/ml Anti-IgM (Jackson Immunoresearch, 709-006-073) for 15-20 min. • 1) Cells were fixed with 100 μL of 4% pre-warmed Paraformaldehyde (2% final concentration), and incubated for 45 min at room temperature. • 2) The paraformaldehyde solution was removed. 100 μL of ice-cold methanol was added into each well and the plate was left at 4° C. for 30 min. • 3) The cells were washed for three times with 160 μL PBS. • 4) 40 μL 1:350 dilution of Rabbit anti-p-AKT(Ser^473) antibody (Cell Signaling Technology, 4060L) in antibody dilution buffer (1% BSA, in PBS) were added into each well. The plate was inculpated overnight at 4° C. • 5) The cells were washed for 3 times with 160 uL PBS. • 6) 45 μL of Goat anti-rabbit IgG Alexa488 antibody (Invitrogen, A11034) at a 1:1,000 dilution in antibody dilution buffer (1% BSA, in PBS) were added into each well. The plate was covered with foil to keep out of light and was incubated for 90 min at room temperature. • 7) The cells were washed for 3 times with 160 uL PBS. • 8) 50 μL of 1.5 μM Propidium Iodide (Sigma: P4170) solution was added into each well to determine cell number (1.5 mM Propidium iodide stock was diluted with 1:1,000 in PBS, and the final concentration was 1.5 μM). • 9) The plate was incubated at room temperature for 30 min and then was sealed with a cover-seal. • 10) The plate was loaded into the Acumen Explorer and scan with the appropriate instrument settings.
(§2) Data was analyzed and IC50 values were generated using the add-in software for Microsoft Excel, Xlfit™ (version 5.3).

[4] = tested on: collagen-induced arthritis, paw volume; test: Rat collagen II induced arthritis (CIA) model; assay type: in vivo, Wistar rats
Method: Rat collagen induced arthritis is an experimental model of polyarthritis that has been widely used for nonclinical testing of numerous anti-arthritic agents that are either under nonclinical or clinical investigation or are currently used as therapeutics in this disease. […] Wistar rats were immunized intradermally with 200 μg bovine collagen H emulsified in Freund's incomplete adjuvant (IFA, Sigma. US) on day 0 and day 7. The hind paw volumes were measured before and after the immunization. […] The naive group was not administered. YiSaiPu (10 mg/kg), a human tumor necrosis factor receptor p75 Fc fusion protein, was administered with intraperitoneal injection on days 10, 12 and 14 as a positive control. The study was terminated on day 18.

[5] = biological target: PI3K-α (p110α/p85α) (Homo sapiens (Human), UniProt P42336); test: Transcreener KINASE Assay, fluorescent determination of PI3K enzyme activity; assay type: biochemical; conditions: for inhibition at 1 µM: read-out: PI3K-α IH % (inhibition rate)
Sequence of PI3K-α (p110α/p85α) (P42336 whole entry, species assumed): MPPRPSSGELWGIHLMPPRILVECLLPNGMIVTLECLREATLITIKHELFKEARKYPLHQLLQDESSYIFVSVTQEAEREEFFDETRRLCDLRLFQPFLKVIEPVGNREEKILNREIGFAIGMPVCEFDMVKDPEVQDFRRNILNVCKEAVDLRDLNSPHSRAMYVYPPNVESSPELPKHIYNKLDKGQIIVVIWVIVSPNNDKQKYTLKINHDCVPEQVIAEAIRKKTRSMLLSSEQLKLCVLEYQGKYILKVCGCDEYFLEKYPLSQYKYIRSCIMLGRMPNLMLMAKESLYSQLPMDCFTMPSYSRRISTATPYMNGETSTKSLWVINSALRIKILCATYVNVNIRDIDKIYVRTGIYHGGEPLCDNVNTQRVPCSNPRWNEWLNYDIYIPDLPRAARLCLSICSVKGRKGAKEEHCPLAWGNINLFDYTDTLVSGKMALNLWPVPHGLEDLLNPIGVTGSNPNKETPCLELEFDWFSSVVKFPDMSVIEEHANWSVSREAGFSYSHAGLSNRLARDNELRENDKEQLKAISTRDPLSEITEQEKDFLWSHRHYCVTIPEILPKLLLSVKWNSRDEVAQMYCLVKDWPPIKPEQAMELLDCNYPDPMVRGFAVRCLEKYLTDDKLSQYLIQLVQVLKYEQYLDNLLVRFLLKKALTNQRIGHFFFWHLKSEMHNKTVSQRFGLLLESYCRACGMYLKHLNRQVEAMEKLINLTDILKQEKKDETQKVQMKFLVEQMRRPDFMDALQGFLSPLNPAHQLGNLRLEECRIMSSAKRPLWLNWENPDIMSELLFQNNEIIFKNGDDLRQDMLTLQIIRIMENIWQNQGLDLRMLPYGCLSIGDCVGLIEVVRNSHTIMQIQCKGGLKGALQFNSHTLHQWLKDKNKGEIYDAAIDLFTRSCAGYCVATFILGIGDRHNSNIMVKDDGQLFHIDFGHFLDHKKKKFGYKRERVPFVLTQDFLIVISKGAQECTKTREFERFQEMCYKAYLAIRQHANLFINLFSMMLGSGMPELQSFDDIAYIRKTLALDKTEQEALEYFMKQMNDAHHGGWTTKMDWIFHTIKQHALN
Sequence of PI3K-α (p110α/p85α) (P27986 whole entry partner, species assumed): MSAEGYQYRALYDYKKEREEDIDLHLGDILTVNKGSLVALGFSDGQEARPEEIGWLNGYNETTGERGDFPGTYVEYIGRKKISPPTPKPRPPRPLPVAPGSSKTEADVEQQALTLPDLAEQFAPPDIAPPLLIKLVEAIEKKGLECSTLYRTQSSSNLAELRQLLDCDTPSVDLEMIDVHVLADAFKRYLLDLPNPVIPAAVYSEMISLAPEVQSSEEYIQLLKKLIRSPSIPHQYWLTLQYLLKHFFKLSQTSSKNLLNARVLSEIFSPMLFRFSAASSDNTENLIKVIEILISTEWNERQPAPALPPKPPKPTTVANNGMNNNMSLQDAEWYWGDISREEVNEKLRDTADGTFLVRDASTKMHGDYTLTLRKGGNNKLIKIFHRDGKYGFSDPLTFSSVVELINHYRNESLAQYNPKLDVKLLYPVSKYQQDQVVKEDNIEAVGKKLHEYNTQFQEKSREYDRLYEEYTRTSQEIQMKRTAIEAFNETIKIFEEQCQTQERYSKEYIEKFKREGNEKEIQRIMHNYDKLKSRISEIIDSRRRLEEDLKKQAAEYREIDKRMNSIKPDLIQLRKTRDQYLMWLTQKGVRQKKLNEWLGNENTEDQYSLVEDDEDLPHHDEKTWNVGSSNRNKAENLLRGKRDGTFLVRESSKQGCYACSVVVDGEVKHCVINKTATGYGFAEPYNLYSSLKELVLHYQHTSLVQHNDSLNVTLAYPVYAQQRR
Method: Inhibition rates were calculated as follow: IH %=(ADP amount under 2% DMSO well−ADP amount under test compound well)/ADP amount under 2% DMSO well×100%.

[6] = tested on: SU-DHL-6 cells; test: In vitro cell proliferation assay in SU-DHL-6 cell line (CCK-8); assay type: cell-based; conditions: Homo sapiens, SU-DHL-6, 72 h
Method: Growth inhibition assays were carried out using 10% FBS supplemented media. Cells were seeded at a concentration of 15000 cells/well in a 96 well plate. Test compound dilution at different concentrations (final concentrations of the test compound: 1 uM, 0.3 uM, 0.1 uM, 0.037 uM, 0.012 uM, 0.0041 uM, 0.0014 uM and 0.0005 uM) were added after 24 hours. Growth was assessed using Cell Counting Kit-8 (CCK-8) (Dojindo, Cat#CK04) after the test compound were incubated for 72 h. Absorbance was read at the wave length 450 nm on Multiskan MK3 machine (Thermo).
as §2

[7] = tested on: PI3Kδ signaling in basophils; test: Inhibition of PI3Kδ signaling in basophils from human whole blood; assay type: cell-based; conditions: human whole blood, anti-human IgE stimulation, CD63; read-out: IC50, inhibition of PI3Kδ signaling in basophils
Method: Methods • 1) Heparinized human whole blood was mixed and pipetted into the 96 well v-bottom plate, 100 μL per well. • 2) 10 μL of stimulation buffer (1 mg/mL stock, final concentration of Recombinant human IL-3: 20 ng/mL) was added to the whole blood samples of each well and vortex gently. […] Vortex all the wells once more and incubate for 20 min at 37° C. • 5) Labeling with staining antibody: Degranulation was stopped by incubating the samples on ice for 5 min. 6 μL of staining antibody mixture (anti-CD63-FITC and anti-IgE-PE) was added into each well. Vortex and incubate the wells for 20 min in an ice bath, covered to prevent exposure to light. • 6) The whole blood samples were lysed with 300 uL RBC lysis (pre-warmed to room temperature, 20 to 25° C.). Vortex and incubate the samples for 15 min at room temperature. Spin down cells (5 min, 250×g, 4° C.). The supernatant was aspirated leaving approximately 100 μL in each well. • 7) The blood samples were lysed once more as step 6). • 8) Washing: The samples are washed once with 0.5 mL of washing solution. The plate was centrifuged (5 min, 250×g, 4° C.). The supernatant was aspirated leaving approximately 100 μL in each well. The sample in each well was washed and centrifuged once more as above. • 9) 200 μL of fixing solution (1% papraledehyde in 1% BSA/PBS) was added into each well.
as §2

[8] = biological target: PI3K-δ (p110δ/p85α) (Homo sapiens (Human), UniProt O00329); test: Transcreener KINASE Assay, fluorescent determination of PI3K enzyme activity; assay type: biochemical;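 note: ADP formed by the kinase detected via far-red competitive fluorescence polarization immunoassay after 80 min room-temperature reaction, inhibition relative to 2% DMSO wells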
Sequence of PI3K-δ (p110δ/p85α) (O00329 whole entry, species assumed): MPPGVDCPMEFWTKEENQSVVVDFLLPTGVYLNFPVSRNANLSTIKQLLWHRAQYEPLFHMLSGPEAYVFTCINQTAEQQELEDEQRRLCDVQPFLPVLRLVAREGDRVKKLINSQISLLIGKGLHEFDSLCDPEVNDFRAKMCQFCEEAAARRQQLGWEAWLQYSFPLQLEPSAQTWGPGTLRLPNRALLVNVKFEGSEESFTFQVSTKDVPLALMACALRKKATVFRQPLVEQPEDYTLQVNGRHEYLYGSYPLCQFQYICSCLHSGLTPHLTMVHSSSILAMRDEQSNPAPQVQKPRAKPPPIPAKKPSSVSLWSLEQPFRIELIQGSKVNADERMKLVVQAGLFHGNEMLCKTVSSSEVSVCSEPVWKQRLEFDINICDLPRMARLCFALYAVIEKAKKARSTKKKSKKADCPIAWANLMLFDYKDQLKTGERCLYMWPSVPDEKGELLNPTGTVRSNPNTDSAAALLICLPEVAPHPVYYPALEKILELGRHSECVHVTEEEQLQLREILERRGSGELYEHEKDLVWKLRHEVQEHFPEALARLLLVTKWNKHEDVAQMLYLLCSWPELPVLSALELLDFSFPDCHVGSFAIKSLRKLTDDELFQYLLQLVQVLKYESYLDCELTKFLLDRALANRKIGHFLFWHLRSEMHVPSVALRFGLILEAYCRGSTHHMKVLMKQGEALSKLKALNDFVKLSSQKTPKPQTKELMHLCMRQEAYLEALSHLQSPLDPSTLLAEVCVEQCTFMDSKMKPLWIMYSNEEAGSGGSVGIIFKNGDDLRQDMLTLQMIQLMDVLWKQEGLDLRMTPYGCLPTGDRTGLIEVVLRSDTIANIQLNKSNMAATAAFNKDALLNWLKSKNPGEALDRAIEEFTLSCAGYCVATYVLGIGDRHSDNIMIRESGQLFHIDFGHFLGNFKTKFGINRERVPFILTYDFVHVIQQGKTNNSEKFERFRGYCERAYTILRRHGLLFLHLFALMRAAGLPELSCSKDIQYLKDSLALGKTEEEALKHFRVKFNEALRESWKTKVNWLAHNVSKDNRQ
Sequence of PI3K-δ (p110δ/p85α) (P27986 whole entry partner, species assumed): as the sequence (P27986 whole entry partner, species assumed) above
Method: (§3) It is a universal, homogenous, high throughput screening (HTS) technology using a far-red, competitive fluorescence polarization immunoassay based on the detection of ADP to monitor the activity of enzymes that catalyze group transfer reactions. […] The reaction mixture was added into desired wells of a 96-well plate. The plate was sealed and incubated for 80 min at room temperature. • 2) Next, 25 uL ADP detection mix was added into each well. The plate was sealed again and incubated for 60 min at room temperature. Then fluorescence polarization was measured by Tecan Infinite F500 Reader.
as §2

[9] = biological target: PI3K-γ (p110γ) (Homo sapiens (Human), UniProt P48736); test: as above; assay type: biochemical;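 note: ADP produced by p110γ kinase reaction, 80 min at room temperature, detected by far-red fluorescence polarization immunoassay, inhibition relative to 2% DMSO control wells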
Sequence of PI3K-γ (p110γ) (P48736 whole entry, species assumed): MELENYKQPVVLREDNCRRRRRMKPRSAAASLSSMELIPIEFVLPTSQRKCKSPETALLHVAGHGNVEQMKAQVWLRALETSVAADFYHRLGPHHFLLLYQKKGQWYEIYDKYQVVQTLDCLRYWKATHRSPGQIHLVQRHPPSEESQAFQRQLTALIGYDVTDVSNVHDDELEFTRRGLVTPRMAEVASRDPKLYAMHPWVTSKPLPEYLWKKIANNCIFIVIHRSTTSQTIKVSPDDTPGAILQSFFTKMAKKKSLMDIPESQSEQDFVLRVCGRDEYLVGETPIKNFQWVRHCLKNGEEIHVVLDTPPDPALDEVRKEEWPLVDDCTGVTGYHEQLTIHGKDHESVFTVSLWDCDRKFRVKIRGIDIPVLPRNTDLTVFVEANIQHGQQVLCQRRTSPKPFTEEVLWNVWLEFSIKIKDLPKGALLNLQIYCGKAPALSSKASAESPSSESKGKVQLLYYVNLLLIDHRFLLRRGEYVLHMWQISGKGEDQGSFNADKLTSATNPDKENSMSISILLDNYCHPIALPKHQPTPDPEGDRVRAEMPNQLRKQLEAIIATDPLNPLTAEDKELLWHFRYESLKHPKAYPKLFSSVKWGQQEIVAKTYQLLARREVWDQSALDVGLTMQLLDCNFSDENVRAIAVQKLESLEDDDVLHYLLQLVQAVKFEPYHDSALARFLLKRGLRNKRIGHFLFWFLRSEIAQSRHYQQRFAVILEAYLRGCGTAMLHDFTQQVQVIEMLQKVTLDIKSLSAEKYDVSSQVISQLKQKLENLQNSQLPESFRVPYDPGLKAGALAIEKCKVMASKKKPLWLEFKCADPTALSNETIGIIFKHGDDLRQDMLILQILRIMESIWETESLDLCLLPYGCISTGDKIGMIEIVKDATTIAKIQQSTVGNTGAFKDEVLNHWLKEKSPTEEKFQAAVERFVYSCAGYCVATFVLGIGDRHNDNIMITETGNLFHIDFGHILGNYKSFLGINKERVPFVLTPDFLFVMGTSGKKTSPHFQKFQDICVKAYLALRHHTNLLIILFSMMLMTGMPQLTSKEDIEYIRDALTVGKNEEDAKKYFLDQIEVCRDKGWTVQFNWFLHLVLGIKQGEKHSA
Method: as §3, §2

[10] = biological target: PI3K-β (Homo sapiens, UniProt P42338); test: as above; assay type: biochemical; conditions: for inhibition at 1 µM: read-out: PI3K-β IH % (inhibition rate);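 for all read-outs here: recombinant PI3K enzyme reaction, 80 min at room temperature, ADP formed detected by far-red competitive fluorescence polarization immunoassay, inhibition relative to ADP in 2% DMSO control wells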
Sequence of PI3K-β (P42338 whole entry, looked up): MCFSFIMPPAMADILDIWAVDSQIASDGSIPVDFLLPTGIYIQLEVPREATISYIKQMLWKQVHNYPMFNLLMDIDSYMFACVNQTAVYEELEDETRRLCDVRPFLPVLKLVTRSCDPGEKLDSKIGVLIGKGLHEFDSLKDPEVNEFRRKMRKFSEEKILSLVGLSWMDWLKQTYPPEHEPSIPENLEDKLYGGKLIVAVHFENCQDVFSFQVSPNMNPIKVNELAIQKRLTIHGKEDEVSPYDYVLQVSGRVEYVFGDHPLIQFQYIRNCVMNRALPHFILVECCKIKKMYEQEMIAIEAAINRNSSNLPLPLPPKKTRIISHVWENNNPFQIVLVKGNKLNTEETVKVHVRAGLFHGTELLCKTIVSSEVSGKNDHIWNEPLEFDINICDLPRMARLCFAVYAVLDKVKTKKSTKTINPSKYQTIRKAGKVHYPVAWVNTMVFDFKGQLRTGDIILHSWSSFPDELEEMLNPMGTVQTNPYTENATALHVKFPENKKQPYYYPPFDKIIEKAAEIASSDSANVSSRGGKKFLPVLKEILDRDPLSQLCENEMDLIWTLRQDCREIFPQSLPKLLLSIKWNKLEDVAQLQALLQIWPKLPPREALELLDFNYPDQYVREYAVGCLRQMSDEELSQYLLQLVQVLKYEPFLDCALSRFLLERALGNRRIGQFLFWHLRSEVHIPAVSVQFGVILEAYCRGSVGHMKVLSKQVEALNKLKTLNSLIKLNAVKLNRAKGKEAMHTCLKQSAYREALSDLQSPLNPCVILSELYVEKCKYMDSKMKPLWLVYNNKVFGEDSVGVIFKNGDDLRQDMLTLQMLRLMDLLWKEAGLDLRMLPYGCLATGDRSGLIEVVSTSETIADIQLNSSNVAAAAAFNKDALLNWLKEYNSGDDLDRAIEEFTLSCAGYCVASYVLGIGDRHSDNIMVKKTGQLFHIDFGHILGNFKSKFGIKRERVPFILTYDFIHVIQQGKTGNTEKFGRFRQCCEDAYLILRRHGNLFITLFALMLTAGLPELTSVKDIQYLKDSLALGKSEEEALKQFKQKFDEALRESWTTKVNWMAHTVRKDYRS
Method: as §3, §2

Compound | Plasma levels [1] | ED50 ([2]; Rattus norvegicus, B-cell, at 2 hr post-dose, oral) [mg/kg] | inhibition at 0.1 mg/kg ([2]; Rattus norvegicus, B-cell, single oral 0.1 mg/kg dose, up to 24 hr) [%] | anti-IgD induced B cell activation in rat whole blood, ex vivo ([2]; oral, dose range 0.01 to 3 mg/kg, p<0.01) | IC50 [3] [nM] | mean paw volume at end of treatment vs vehicle-treated diseased animals ([4]; PO QD 7 days, p<0.01 except at lowest dose 0.03 mg/kg) | effects on parameters associated with established type II collagen-induced arthritis ([4]; daily oral treatment) | IC50 [5] [nM] | IC50 [6] [nM] | IC50 [7] [nM] | IC50 [8] [nM] | inhibition at 1 µM ([9]; at 1 μM, read-out: PI3K-γ IH % (inhibition rate)) [%] | IC50 [10] [nM] | IC50 [9] [nM] | inhibition at 1 µM [10] [%] | inhibition at 1 µM [5] [%]
C[C@H](Nc1ncnc(N)c1C#N)c1cc2ncc(Cl)n2nc1-c1ccccc1 [Compound 4, (S)-4-amino-6-((1-(3-chloro-6-phenylimidazo[1,2-b]pyridazin-7-yl)ethyl)amino)pyrimidine-5-carbonitrile] | dose-proportional | < 0.01 | > 90 | inhibited anti-IgD induced B cell activation | 2 | significantly decreased | dose-dependent beneficial effects | > 1000 | – | – | – | – | – | – | – | –
CC[C@H](Nc1ncnc(N)c1C#N)c1cc2ncc(Cl)n2nc1-c1ccccc1 [Compound 6, (S)-4-amino-6-((1-(3-chloro-6-phenylimidazo[1,2-b]pyridazin-7-yl)propyl)amino)pyrimidine-5-carbonitrile] | – | – | – | – | 0.3 | – | – | > 1000 | 3 | 6 | 1 | 61.1 | 303 | – | – | –
Cc1cnc2cc([C@H](C)Nc3ncnc(N)c3C#N)c(-c3ccccc3)nn12 [Compound 22] | – | – | – | – | 4 | – | – | – | 19 | 2 | 2 | – | – | 322 | 76.7 | 13.6
C[C@H](Nc1ncnc2[nH]cnc12)c1cc2ncc(Cl)n2nc1-c1ccccc1F [Compound 13] | – | – | – | – | 4 | – | – | > 1000 | 11 | 10 | 3 | – | 1920 | 484 | – | –
Cc1cnc2cc([C@H](C)Nc3ncnc4[nH]cnc34)c(-c3ccccc3)nn12 [Compound 23] | – | – | – | – | 12 | – | – | – | 78 | 6 | 6 | – | – | 343 | 28.7 | 3.2
